From ChEMBL document CHEMBL1157531, “Sinulaflexiolides A-K, cembrane-type diterpenoids from the chinese soft coral Sinularia flexibilis” (J Nat Prod, 2008)

Experiment: Cytotoxicity against human […] cells
Type: functional, cell-based

SMILES	IC50
C=C1C(=O)O[C@@H]2C[C@H]1CC/C(C)=C/CC/C(C)=C/CC[C@]2(C)O	> 10 µg/mL
C=C1C(=O)O[C@]2(C)CC[C@@H]1C[C@H](O)/C(C)=C/C/C=C(\C)CC[C@@H]2OC(C)=O [DENDRONPHOLIDE A]	> 10 µg/mL
C=C1C(=O)O[C@]2(C)CC[C@@H]1C[C@@H](O)[C@@](C)(O)CC/C=C(\C)CC[C@@H]2O [CAPILLOLIDE]	> 10 µg/mL
C=C(C(=O)OCC)[C@@H]1CC[C@@](C)(O)[C@@H]2CC[C@@](C)(O2)[C@@H](OC(C)=O)CC[C@]2(C)O[C@@H]2C1 [SINULAFLEXIOLIDE F]	0.12 µM
C=C(C(=O)OC)[C@@H]1CC[C@@](C)(O)[C@@H]2CC[C@@](C)(O2)[C@@H](OC(C)=O)CC[C@]2(C)O[C@@H]2C1 [SINULAFLEXIOLIDE E]	8.5 µM
C=C1C(=O)O[C@]2(C)CC[C@@H]1C[C@H]1O[C@@]1(C)CC[C@H](OC(C)=O)[C@@]1(C)CC[C@@H]2O1	> 10 µg/mL
